molecular target: T1, human PPARγ1 (Homo sapiens, UniProt P37231); assay: Measurement of human PPARγ1 binding activity ([3H]-compound A displacement); conditions: cell extract with 1.5 μg/ml full length hPPARγ1, 20 nM [3H]-compound A, 4° C., 16 hrs
T1 construct: made in house; host or cells: COS-1 cells transiently transfected with pMCMVneo-hPPARγ; crude supernatant of the lysate, not purified
T1 sequence (P37231 1-477 isoform P37231-2): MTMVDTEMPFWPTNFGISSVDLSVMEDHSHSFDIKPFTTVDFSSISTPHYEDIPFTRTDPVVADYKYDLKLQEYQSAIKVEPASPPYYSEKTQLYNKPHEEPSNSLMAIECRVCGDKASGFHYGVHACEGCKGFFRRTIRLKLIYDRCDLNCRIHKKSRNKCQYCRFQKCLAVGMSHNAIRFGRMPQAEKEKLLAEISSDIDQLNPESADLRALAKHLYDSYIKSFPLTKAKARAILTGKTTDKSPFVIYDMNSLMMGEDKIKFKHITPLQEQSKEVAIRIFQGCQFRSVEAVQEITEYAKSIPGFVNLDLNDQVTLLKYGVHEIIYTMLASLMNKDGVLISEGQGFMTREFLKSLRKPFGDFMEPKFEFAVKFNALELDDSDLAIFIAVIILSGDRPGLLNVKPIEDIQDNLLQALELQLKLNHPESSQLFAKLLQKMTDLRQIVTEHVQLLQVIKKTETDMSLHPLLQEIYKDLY
Protocol: A cell extract containing 1.5 μg/ml of full length hPPARγ1 prepared in Reference Example 7a, 20 nM [^3H]-compound A (16 Ci/mmol)(Amersham Pharmacia Biotech) and a test compound were reacted in TEGM buffer at 4° C. for 16 hrs. To the reaction mixture was added activated carbon (Sigma) coated with 140 μl of dextran (Amersham Pharmacia Biotech) and gelatin (Sigma), and the mixture was left standing at 4° C. for 10 min and centrifuged at 910×g for 10 min. After centrifugation, the radioactivity of 30 μl of supernatant was measured with Topcount (Packard). In addition, a test similar to the above was conducted for the non-use of the aforementioned test compound and for the use of 100 μM of compound A instead of the aforementioned test compound, and the radioactivity was determined.
The human PPARγ1 binding activity of the test compound was evaluated using percentages wherein the measured value of the radioactivity when 20 nM [^3H]-compound A alone was added was 100%, and the measured value of the radioactivity when 20 nM [^3H]-compound A and 100 μM of compound A were simultaneously added was 0%. Moreover, the IC50 value of the test compound was calculated based on the analysis of the compound concentration and the percentage using PRISM3.0 (Graph Pad, Inc.).
COS-1 cells were seeded in a 150 cm^2 tissue culture flask (Corning Inc.) at 5×10^6 cells, and cultured under 37° C. 5% CO2 conditions for 24 hrs. Transfection was performed using lipofectamine (GIBCO BRL). To be specific, 125 μl of lipofectamine, 100 μl of PLUS Reagent and 15 μg of hPPARγ expression plasmid (plasmid pMCMVneo-hPPARγ obtained in Reference Example 6a) were mixed with opti-MEM (GIBCO BRL) to give a transfection mixture. The transfection mixture (25 ml) was added to COS-1 cells and the cells were cultured under 37° C. 5% CO2 conditions for 3 hrs. Then 25 ml of DMEM medium (Nikken Biomedical Laboratory) containing 10% FCS treated with activated carbon (Sigma) was added to the cells and the cells were cultured under 37° C. 5% CO2 conditions. After 24 hrs., the medium was substituted with 50 ml of DMEM medium (Nikken Biomedical Laboratory) containing 5% FCS treated with activated carbon, and the cells were cultured under 37° C., 5% CO2 conditions. After 48 hrs, the transfected cells were recovered and washed with TEG buffer (10 mM Tris-HCl (pH 7.2), 50 mM EDTA, 10% glycerol). The cells were suspended in 1 ml TEGM buffer (10 mM Tris-HCl (pH 7.2), 1 mM EDTA, 10% glycerol, 7 μl/100 ml β-mercaptoethanol, 10 mM Na molybdate, 1 mM dithiothreitol, 2 tablets/100 ml Protease inhibitor Cocktail tablets (Boehringer Mannheim)) and, for cell lysis, frozen with liquid nitrogen and thawed on ice. To remove the debris of the cells, the extract was centrifuged at 228,000×g, 4° C. for 20 min. and the supernatant was preserved at −80° C. until use.

**Q.** `CCc1nc(/C=C/c2cn(-c3ccccc3)nc2OCc2ccc(OCc3nc(-c4cccc(C(=O)O)c4)oc3C)c(OC)c2)co1` [Example 307] was tested. Which IC50 did it give?
**A.** 7.4 nM

**Q.** With `CCOP(=O)(/C=C/c1cn(-c2ccccc2)nc1OCc1ccc(OCc2nc(/C=C/C(=O)O)oc2C)c(OC)c1)OCC` [Example 315, (2E)-3-[4-({4-[({4-[(E)-2-(diethoxyphosphoryl)ethenyl]-1-phenyl-1H-pyrazol-3-yl}oxy)methyl]-2-methoxyphenoxy}methyl)-5-methyl-1,3-oxazol-2-yl]-2-propenoic acid] as the compound, how does the IC50 read?
**A.** 500 nM

**Q.** With `CCOP(=O)(/C=C/c1cn(-c2ccccc2)nc1OCc1ccc(OCc2nc(-c3cccc(-c4nnn[nH]4)c3)oc2C)c(OC)c1)OCC` [Example 336, {(E)-2-(3-{[3-methoxy-4-({5-methyl-2-[3-(1H-tetrazol-5-yl)phenyl]-1,3-oxazol-4-yl}methoxy)benzyl]oxy}-1-phenyl-1H-pyrazol-4-yl)ethenyl}phosphonate diethyl] as the compound, how does the IC50 read?
**A.** 7.7 nM

**Q.** How did the IC50 turn out when `CCc1nc(/C=C/c2cn(-c3ccccc3)nc2OCc2ccc(OCc3nc(-c4ccc(CC(=O)O)cc4)oc3C)c(OC)c2)cs1` [Example 337, {4-[4-({4-[({4-[(E)-2-(2-ethyl-1,3-thiazol-4-yl)ethenyl]-1-phenyl-1H-pyrazol-3-yl}oxy)methyl]-2-methoxyphenoxy}methyl)-5-methyl-1,3-oxazol-2-yl]phenyl}acetic acid] was run?
**A.** 66 nM

**Q.** `CCn1cnc(/C=C/c2cn(-c3ccccc3)nc2OCc2ccc(OCc3nc(-c4ccc(CC(=O)O)cc4)oc3C)c(OC)c2)c1` [Example 344, (4-{4-[(4-[({4-[(E)-2-(1-ethyl-1H-imidazol-4-yl)ethenyl]-1-phenyl-1H-pyrazol-3-yl}oxy)methyl]-2-methoxyphenoxy)methyl]-5-methyl-1,3-oxazol-2-yl}phenyl)acetic acid] was tested. Which IC50 did it give?
**A.** 46 nM

**Q.** Which IC50 does the source give for `COc1cc(COc2nn(-c3ccccc3)cc2/C=C/c2csc(C)n2)ccc1OCc1nc(-c2ccc(CC(=O)O)cc2)oc1C` [Example 357, {4-[4-({2-methoxy-4-[({4-[(E)-2-(2-methyl-1,3-thiazol-4-yl)ethenyl]-1-phenyl-1H-pyrazol-3-yl}oxy)methyl]phenoxy}methyl)-5-methyl-1,3-oxazol-2-yl]phenyl}acetic acid] here?
**A.** 150 nM

**Q.** For `COc1cc(COc2nn(-c3ccccc3)cc2/C=C/c2csc(C(C)C)n2)ccc1OCc1nc(-c2ccc(CC(=O)O)cc2)oc1C` [Example 361, {4-[4-({4-[({4-[(E)-2-(2-isopropyl-1,3-thiazol-4-yl)ethenyl]-1-phenyl-1H-pyrazol-3-yl}oxy)methyl]-2-methoxyphenoxy}methyl)-5-methyl-1,3-oxazol-2-yl]phenyl}acetic acid], which IC50 is on record?
**A.** 38 nM

**Q.** How did the IC50 turn out when `CCc1nc(/C=C/c2cn(-c3ccccc3)nc2OCc2ccc(OCc3nc(-c4ccc(CC(=O)O)cc4)oc3C)c(OC)c2)co1` [Example 369, {4-[4-({4-[({4-[(E)-2-(2-ethyl-1,3-oxazol-4-yl)ethenyl]-1-phenyl-1H-pyrazol-3-yl}oxy)methyl]-2-methoxyphenoxy}methyl)-5-methyl-1,3-oxazol-2-yl]phenyl}acetic acid] was run?
**A.** 83 nM

**Q.** With `COc1cc(COc2nn(-c3ccccc3)cc2/C=C/c2coc(C(C)C)n2)ccc1OCc1nc(-c2ccc(CC(=O)O)cc2)oc1C` [Example 370, {4-[4-({4-[({4-[(E)-2-(2-isopropyl-1,3-oxazol-4-yl)ethenyl]-1-phenyl-1H-pyrazol-3-yl}oxy)methyl]-2-methoxyphenoxy}methyl)-5-methyl-1,3-oxazol-2-yl]phenyl}acetic acid] as the compound, how does the IC50 read?
**A.** 32 nM
